These results are taken from patent US9834558B2, “Substituted bridged urea analogs as sirtuin modulators” (GLAXOSMITHKLINE LLC, priority 2013, dated 2017).

The structures appear in SMILES notation.

One experiment has as its target T1, SIRT1 (Homo sapiens, UniProt Q96EB6).
T1 sequence (Q96EB6 1-747): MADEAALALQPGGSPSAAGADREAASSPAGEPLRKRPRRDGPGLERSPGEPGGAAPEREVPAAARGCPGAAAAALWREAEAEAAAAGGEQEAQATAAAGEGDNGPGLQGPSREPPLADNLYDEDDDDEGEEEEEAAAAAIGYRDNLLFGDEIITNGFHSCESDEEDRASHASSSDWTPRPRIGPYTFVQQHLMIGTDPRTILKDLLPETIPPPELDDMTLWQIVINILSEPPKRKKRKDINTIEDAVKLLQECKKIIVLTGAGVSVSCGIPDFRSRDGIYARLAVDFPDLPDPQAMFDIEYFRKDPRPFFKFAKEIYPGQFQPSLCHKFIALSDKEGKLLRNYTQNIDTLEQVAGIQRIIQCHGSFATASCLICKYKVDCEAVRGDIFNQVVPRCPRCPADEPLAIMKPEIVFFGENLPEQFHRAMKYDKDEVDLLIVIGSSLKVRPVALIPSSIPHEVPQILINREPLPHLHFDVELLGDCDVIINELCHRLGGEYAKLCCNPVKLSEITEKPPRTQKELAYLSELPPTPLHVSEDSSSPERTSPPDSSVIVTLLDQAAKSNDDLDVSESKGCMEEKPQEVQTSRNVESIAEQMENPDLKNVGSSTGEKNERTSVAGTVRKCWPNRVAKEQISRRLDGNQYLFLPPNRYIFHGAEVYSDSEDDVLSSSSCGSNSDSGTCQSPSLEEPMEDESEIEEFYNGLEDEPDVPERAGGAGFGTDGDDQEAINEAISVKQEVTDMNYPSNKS
The experiment in a line: Trp mass spectrometry assay of SIRT1 activation. The format is biochemical. As to conditions: Trp mass spectrometry assay; concentration of test compound giving 150% activation of SIRT1. The method, boiled down:
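Activation read-out: mass-spec measurement of O-acetyl-ADP-ribose or deacetylated Trp peptide versus compound-free controls, giving EC1.5 and Percent Maximum Activation. Reactions ran 25 min at 25 °C, pH 7.5, with 120 μM βNAD+, 0.5 μM acetylated p53-derived peptide and 10 nM His-tagged SIRT1.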
`O=C(Nc1cnccn1)N1c2nc(-c3cc(C(F)(F)F)cc(C(F)(F)F)c3)ccc2N2CC[C@H]1C2` [Example 363]: the “Tryp AVG EC1.5 (μM)” value is listed as “B (B (EC1.5 1-25 μM))”.

Consider `O=C(Nc1cnccn1)N1c2nc(-c3cc(Cl)cc(Cl)c3)ccc2N2CC[C@H]1C2` [Example 364], for which the “Tryp AVG EC1.5 (μM)” value was “B (B (EC1.5 1-25 μM))”.

As for `O=C(Nc1cccc(-c2cnco2)c1)N1c2nc(-c3cccc(Cl)c3)ccc2N2CC[C@H]1C2` [Example 365], the “Tryp AVG EC1.5 (μM)” value was “A (A (EC1.5<1 μM))”.

As for `COc1cncc(NC(=O)N2c3nc(-c4cccc(N5CCCC5)c4)ccc3N3CC[C@H]2C3)n1` [Example 366], the “Tryp AVG EC1.5 (μM)” value was “A (A (EC1.5<1 μM))”.

Regarding `O=C(Nc1ccccn1)N1c2nc(-c3ccnc(N4CCC(C(F)(F)F)C4)c3)ccc2N2CC[C@H]1C2` (some centres unmarked) [Example 367], the “Tryp AVG EC1.5 (μM)” value is listed as “A (A (EC1.5<1 μM))”.

As to `COc1cc(NC(=O)N2c3nc(-c4ccnc(N5CCC(C(F)(F)F)C5)c4)ccc3N3CC[C@H]2C3)ncn1` (some centres unmarked) [Example 368], the “Tryp AVG EC1.5 (μM)” value is recorded as “B (B (EC1.5 1-25 μM))”.

For the compound `O=C(Nc1ccccn1)N1c2nc(-c3cncc(C(F)(F)F)c3)ccc2N2CCC[C@H]1C2` [Example 369], the “Tryp AVG EC1.5 (μM)” value is on record as “A (A (EC1.5<1 μM))”.

Turning to `Cc1n[nH]cc1-c1ccc2c(n1)N(C(=O)Nc1ccccn1)[C@H]1CCN2C1` [Example 370], the “Tryp AVG EC1.5 (μM)” value is “B (B (EC1.5 1-25 μM))”.

Consider `NC(=O)c1cncc(-c2ccc3c(n2)N(C(=O)Nc2ccccn2)[C@H]2CCN3C2)c1` [Example 371], for which the “Tryp AVG EC1.5 (μM)” value is listed as “B (B (EC1.5 1-25 μM))”.

Consider `O=C(Nc1ccccn1)N1c2nc(-c3ccc4nonc4c3)ccc2N2CC[C@H]1C2` [Example 372], for which the “Tryp AVG EC1.5 (μM)” value is given as “B (B (EC1.5 1-25 μM))”.

As to `N#Cc1cncc(-c2ccc3c(n2)N(C(=O)Nc2ccccn2)[C@H]2CCN3C2)c1` [Example 373], the “Tryp AVG EC1.5 (μM)” value is “A (A (EC1.5<1 μM))”.

Consider `O=C(Nc1ccccn1)N1c2nc(-c3cncc(F)c3)ccc2N2CC[C@H]1C2` [Example 374], for which the “Tryp AVG EC1.5 (μM)” value is reported as “B (B (EC1.5 1-25 μM))”.

Regarding `CS(=O)(=O)c1cncc(-c2ccc3c(n2)N(C(=O)Nc2ccccn2)[C@H]2CCCN3C2)c1` [Example 375], the “Tryp AVG EC1.5 (μM)” value was “A (A (EC1.5<1 μM))”.

`CS(=O)(=O)c1cncc(-c2ccc3c(n2)N(C(=O)Nc2cccnc2)[C@H]2CCCN3C2)c1` [Example 376]: the “Tryp AVG EC1.5 (μM)” value is recorded as “A (A (EC1.5<1 μM))”.

Consider `CS(=O)(=O)c1cncc(-c2ccc3c(n2)N(C(=O)Nc2cncc(F)c2)[C@H]2CCCN3C2)c1` [Example 377], for which the “Tryp AVG EC1.5 (μM)” value was “A (A (EC1.5<1 μM))”.

`CS(=O)(=O)c1cncc(-c2ccc3c(n2)N(C(=O)Nc2cnccn2)[C@H]2CCCN3C2)c1` [Example 378]: the “Tryp AVG EC1.5 (μM)” value is reported as “A (A (EC1.5<1 μM))”.

As to `CS(=O)(=O)c1cncc(-c2ccc3c(n2)N(C(=O)Nc2ccncn2)[C@H]2CCCN3C2)c1` [Example 379], the “Tryp AVG EC1.5 (μM)” value was “A (A (EC1.5<1 μM))”.

In the case of `CS(=O)(=O)c1cncc(-c2ccc3c(n2)N(C(=O)Nc2cccnn2)[C@H]2CCCN3C2)c1` [Example 380], the “Tryp AVG EC1.5 (μM)” value was “A (A (EC1.5<1 μM))”.

Turning to `N#Cc1cccc(-c2ccc3c(n2)N(C(=O)Nc2cccnn2)[C@H]2CCCN3C2)c1` [Example 381], the “Tryp AVG EC1.5 (μM)” value is reported as “B (B (EC1.5 1-25 μM))”.

For `CC(C)(C)OC(=O)N1CCCN(c2ccc3c(n2)N(C(=O)Nc2ccncn2)[C@H]2CCCN3C2)CC1` [Example 382], the “Tryp AVG EC1.5 (μM)” value is listed as “C (C (EC1.5>25 μM))”.

Regarding `Cc1nc(NC(=O)N2c3nc(-c4cccc(N(C)C)c4)ccc3N3CCC[C@H]2C3)sc1C` [Example 383], the “Tryp AVG EC1.5 (μM)” value is recorded as “A (A (EC1.5<1 μM))”.

In the case of `CN(C)c1cccc(-c2ccc3c(n2)N(C(=O)Nc2ccc(F)cn2)[C@H]2CCCN3C2)c1` [Example 384], the “Tryp AVG EC1.5 (μM)” value was “B (B (EC1.5 1-25 μM))”.

On to `COc1cc(NC(=O)N2c3nc(-c4cccc(N(C)C)c4)ccc3N3CCC[C@H]2C3)ncn1` [Example 385], for which the “Tryp AVG EC1.5 (μM)” value is on record as “A (A (EC1.5<1 μM))”.

For the compound `CN(C)c1cccc(-c2ccc3c(n2)N(C(=O)Nc2ccccn2)[C@H]2CCCN3C2)c1` [Example 386], the “Tryp AVG EC1.5 (μM)” value was “B (B (EC1.5 1-25 μM))”.

For the compound `O=C(Nc1ccccn1)N1c2nc(-c3cccc(Cl)c3)ccc2N2CCC[C@H]1C2` [Example 387], the “Tryp AVG EC1.5 (μM)” value was “A (A (EC1.5<1 μM))”.

Regarding `O=C(Nc1ccccn1)N1c2nc(-c3ccnc(N4CCC(F)(F)C4)c3)ccc2N2CC[C@H]1C2` [Example 388], the “Tryp AVG EC1.5 (μM)” value is reported as “A (A (EC1.5<1 μM))”.

For the compound `COc1cc(NC(=O)N2c3nc(-c4ccnc(N5CCC(F)(F)C5)c4)ccc3N3CC[C@H]2C3)ncn1` [Example 390], the “Tryp AVG EC1.5 (μM)” value was “B (B (EC1.5 1-25 μM))”.

As to `O=C(Nc1ccc(F)cn1)N1c2nc(-c3ccnc(N4CCC(C(F)(F)F)C4)c3)ccc2N2CC[C@H]1C2` (some centres unmarked) [Example 391], the “Tryp AVG EC1.5 (μM)” value was “A (A (EC1.5<1 μM))”.

As for `O=C(Nc1cccnc1)N1c2nc(-c3cncc(C(F)(F)F)c3)ccc2N2CC[C@H]1C2` [Example 392], the “Tryp AVG EC1.5 (μM)” value is on record as “A (A (EC1.5<1 μM))”.

Take `O=C(Nc1ccncn1)N1c2nc(-c3cncc(C(F)(F)F)c3)ccc2N2CCC[C@H]1C2` [Example 393]: the “Tryp AVG EC1.5 (μM)” value is on record as “A (A (EC1.5<1 μM))”.

Regarding `COc1cc(NC(=O)N2c3nc(-c4cncc(C(F)(F)F)c4)ccc3N3CCC[C@H]2C3)ncn1` [Example 394], the “Tryp AVG EC1.5 (μM)” value is reported as “A (A (EC1.5<1 μM))”.

For the compound `Cn1cc(-c2ccc3c(n2)N(C(=O)Nc2cccnc2)[C@H]2CCN3C2)cn1` [Example 395], the “Tryp AVG EC1.5 (μM)” value is given as “B (B (EC1.5 1-25 μM))”.

As for `COc1cc(-c2cccc(Cl)c2)nc2c1N1CC[C@@H](C1)N2C(=O)Nc1cnccn1` [Example 396], the “Tryp AVG EC1.5 (μM)” value was “A (A (EC1.5<1 μM))”.

As for `O=C(Nc1cnccn1)N1c2nc(-c3cc(F)cc(F)c3)ccc2N2CC[C@H]1C2` [Example 397], the “Tryp AVG EC1.5 (μM)” value was “C (C (EC1.5>25 μM))”.

As for `COc1ncc(-c2ccc3c(n2)N(C(=O)Nc2cnccn2)[C@H]2CCN3C2)c(OC)n1` [Example 398], the “Tryp AVG EC1.5 (μM)” value is reported as “B (B (EC1.5 1-25 μM))”.

Regarding `COc1ccc(-c2ccc3c(n2)N(C(=O)Nc2cnccn2)[C@H]2CCN3C2)cn1` [Example 399], the “Tryp AVG EC1.5 (μM)” value was “B (B (EC1.5 1-25 μM))”.

Take `O=C(Nc1cnccn1)N1c2nc(-c3cncc(F)c3)ccc2N2CC[C@H]1C2` [Example 400]: the “Tryp AVG EC1.5 (μM)” value is listed as “B (B (EC1.5 1-25 μM))”.

With `O=C(Nc1ccc(F)cn1)N1c2nc(-c3cncc(Cl)c3)ccc2N2CCC[C@H]1C2` [Example 401], the “Tryp AVG EC1.5 (μM)” value is listed as “A (A (EC1.5<1 μM))”.

Take `Cc1nc(NC(=O)N2c3nc(-c4cncc(Cl)c4)ccc3N3CCC[C@H]2C3)sc1C` [Example 402]: the “Tryp AVG EC1.5 (μM)” value is given as “A (A (EC1.5<1 μM))”.

For `CN(C)c1cccc(-c2ccc3c(n2)N(C(=O)Nc2cnccn2)[C@H]2CCCN3C2)c1` [Example 403], the “Tryp AVG EC1.5 (μM)” value is reported as “A (A (EC1.5<1 μM))”.

With `COc1cc(NC(=O)N2c3nc(-c4cncc(F)c4)ccc3N3CCC[C@H]2C3)ncn1` [Example 404], the “Tryp AVG EC1.5 (μM)” value is reported as “A (A (EC1.5<1 μM))”.

On to `COc1cc(NC(=O)N2c3nc(-c4cncc(Cl)c4)ccc3N3CCC[C@H]2C3)ncn1` [Example 405], for which the “Tryp AVG EC1.5 (μM)” value is recorded as “A (A (EC1.5<1 μM))”.

In the case of `O=C(Nc1ccccn1)N1c2nc(-c3cncc(Cl)c3)ccc2N2CCC[C@H]1C2` [Example 406], the “Tryp AVG EC1.5 (μM)” value is given as “A (A (EC1.5<1 μM))”.

Take `O=C(Nc1cccnc1)N1c2nc(-c3cccc(Cl)c3)ccc2N2CCC[C@H]1C2` [Example 407]: the “Tryp AVG EC1.5 (μM)” value was “A (A (EC1.5<1 μM))”.

Consider `COc1cc(NC(=O)N2c3nc(-c4cccc(Cl)c4)ccc3N3CCC[C@H]2C3)ncn1` [Example 408], for which the “Tryp AVG EC1.5 (μM)” value is “A (A (EC1.5<1 μM))”.

For the compound `O=C(Nc1ccncc1)N1c2nc(-c3cccc(Cl)c3)ccc2N2CCC[C@H]1C2` [Example 409], the “Tryp AVG EC1.5 (μM)” value is reported as “A (A (EC1.5<1 μM))”.

In the case of `O=C(Nc1cncc(F)c1)N1c2nc(-c3ccnc(N4CCC(C(F)(F)F)C4)c3)ccc2N2CC[C@H]1C2` (some centres unmarked) [Example 410], the “Tryp AVG EC1.5 (μM)” value was “A (A (EC1.5<1 μM))”.

In the case of `O=C(Nc1cncc(F)c1)N1c2nc(-c3cncc(C(F)(F)F)c3)ccc2N2CCC[C@H]1C2` [Example 411], the “Tryp AVG EC1.5 (μM)” value was “A (A (EC1.5<1 μM))”.

For the compound `O=C(Nc1cccnn1)N1c2nc(-c3cncc(C(F)(F)F)c3)ccc2N2CCC[C@H]1C2` [Example 412], the “Tryp AVG EC1.5 (μM)” value is listed as “A (A (EC1.5<1 μM))”.

On to `Cc1noc(C)c1-c1ccc2c(n1)N(C(=O)Nc1cnccn1)[C@H]1CCN2C1` [Example 413], for which the “Tryp AVG EC1.5 (μM)” value is listed as “C (C (EC1.5>25 μM))”.

Turning to `Cn1nccc1-c1ccc2c(n1)N(C(=O)Nc1cnccn1)[C@H]1CCN2C1` [Example 414], the “Tryp AVG EC1.5 (μM)” value is “B (B (EC1.5 1-25 μM))”.

Consider `CS(=O)(=O)c1cccc(-c2ccc3c(n2)N(C(=O)Nc2cnccn2)[C@H]2CCN3C2)c1` [Example 415], for which the “Tryp AVG EC1.5 (μM)” value is reported as “A (A (EC1.5<1 μM))”.

The same experiment, now with this note: Trp mass spectrometry assay; percent maximum fold activation of SIRT1; read-out: Tryp % Fold Act.
For `O=C(Nc1cnccn1)N1c2nc(-c3cc(C(F)(F)F)cc(C(F)(F)F)c3)ccc2N2CC[C@H]1C2` [Example 363], the Emax is greater than 150%.
